Test results as given in patent US8741923B2, “Oxadiazole fused heterocyclic derivatives useful for the treatment of multiple sclerosis” (Merck Serono SA, priority 2008, dated 2014).

Legend:
S1P1 [1] = target: T1, S1P1 (Homo sapiens (Human), UniProt P21453); experiment: Receptor binding assay ([33P]sphingosine 1-phosphate, SPA) on S1P1 membranes; conditions: membranes from CHO cells expressing S1P1
Method: (§1) Receptor binding assay: Membranes were prepared from CHO cells expressing S1P1 or S1P3 for use in ligand and 35S-GTPγS binding studies. Cells were suspended in 50 mM TRIS, pH 7.4, 2 mM EDTA, 250 mM Sucrose (buffer A) and 1× Complete protease inhibitor cocktail (Roche), and disrupted at 4° C. by N2 decompression using a cell disruption bomb (Parr Instrument). Following centrifugation at 1000 RPM for 10 min at 4° C., the supernatant was suspended in buffer A and centrifuged again at 19000 RPM for 60 min at 4° C. The pellet was then suspended in 10 mM HEPES, pH 7.4, 1 mM EDTA, 250 mM Sucrose (Buffer B), and 1× Complete EDTA-free protease inhibitor cocktail and homogenized using a potter. Membranes were flash frozen in liquid N2 and stored at −80° C. [33P]sphingosine 1-phosphate (3000 Ci/mmol; American Radiolabeled Chemicals, Inc.) was added to test compounds in DMSO. Membranes and WGA SPA beads (GE Healthcare) were added to give a final volume of 100 μl in 96-well plates with assay concentrations of 25 μM or 10 μM [33P]sphingosine 1-phosphate (respectively for S1P1 or S1P3), 50 mM HEPES, pH 7.5, 5 mM MgCl2, 100 mM NaCl, 0.4% fatty acid-free BSA, 1-5 μg/well of proteins and 100 μg/well of WGA SPA beads. Binding was performed for 60 min at RT on a shaker and bound radioactivity was measured on a PerkinElmer 1450 MicroBeta counter. Specific binding was calculated by subtracting remaining radioactivity in the presence of 1000-fold excess of unlabeled S1P. Binding data were analyzed using the GraphPad Prism program.

S1P1 [2] = target: T1, S1P1; experiment: 35S-GTPγS binding, S1P1 membranes; assay type: biochemical; conditions: membranes from CHO cells expressing S1P1
Method: as §1, with “Membranes and WGA SPA beads (GE Healthcare) were added to give a final volume of 100 μl in 96-well plates with assay concentrations of 25 μM or 10 μM [33P]sphingosine 1-phosphate (respectively for S1P1 or S1P3), 50 mM HEPES, pH 7.5, 5 mM MgCl2, 100 mM NaCl, 0.4% fatty acid-free BSA, 1-5 μg/well of proteins and 100 μg/well of WGA SPA beads. Binding was performed for 60 min at RT on a shaker and bound radioactivity was measured on a PerkinElmer 1450 MicroBeta counter.” left out
(§2) Measurements of 35S-GTPγS Binding:
After 60 min incubation at 30° C. on a shaker, plates were centrifuged for 10 min at 2000 RPM. […] Triplicate samples were averaged and expressed as % response relative to S1P activation in absence of compound (n=2).

S1P3 = S1P3 (Homo sapiens (Human), UniProt Q99500); experiment: 35S-GTPγS binding, S1P3 membranes; assay type: biochemical; conditions: membranes from CHO cells expressing S1P3
Method: as §1, §2
Membranes (1 to 10 μg protein) prepared as described above, were incubated in 96-well Scintiplates (PerkinElmer) with test compounds diluted in DMSO, in 180 μl of 20 mM HEPES, pH 7.4, 10 mM MgCl2, 2 μg/well Saponin, 0.2% fatty acid free BSA (Assay buffer), 140 mM NaCl and 1.7 μM GDP. The assay was initiated with the addition of 20 μl of 1.5 nM [35S]-GTPγS (1100 Ci/mmol; GE Healthcare) in assay buffer. After 60 min incubation at 30° C. on a shaker, plates were centrifuged for 10 min at 2000 RPM. Supernatant was discarded and membrane bound radioactivity was measured on a PerkinElmer 1450 MicroBeta counter. Triplicate samples were averaged and expressed as % response relative to S1P activation in absence of compound (n=2).

S1P3, sequence (Q99500 whole entry, species assumed): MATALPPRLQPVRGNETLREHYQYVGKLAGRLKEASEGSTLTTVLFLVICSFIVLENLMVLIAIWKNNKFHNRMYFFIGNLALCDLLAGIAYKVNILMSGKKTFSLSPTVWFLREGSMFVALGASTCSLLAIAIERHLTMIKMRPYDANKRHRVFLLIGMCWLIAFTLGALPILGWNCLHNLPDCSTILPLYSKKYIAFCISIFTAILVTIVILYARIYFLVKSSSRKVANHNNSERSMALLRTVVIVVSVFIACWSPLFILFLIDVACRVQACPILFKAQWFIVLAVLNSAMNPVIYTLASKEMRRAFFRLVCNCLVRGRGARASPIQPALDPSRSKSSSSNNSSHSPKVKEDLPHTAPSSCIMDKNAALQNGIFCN
T1 sequence (P21453 whole entry, species assumed): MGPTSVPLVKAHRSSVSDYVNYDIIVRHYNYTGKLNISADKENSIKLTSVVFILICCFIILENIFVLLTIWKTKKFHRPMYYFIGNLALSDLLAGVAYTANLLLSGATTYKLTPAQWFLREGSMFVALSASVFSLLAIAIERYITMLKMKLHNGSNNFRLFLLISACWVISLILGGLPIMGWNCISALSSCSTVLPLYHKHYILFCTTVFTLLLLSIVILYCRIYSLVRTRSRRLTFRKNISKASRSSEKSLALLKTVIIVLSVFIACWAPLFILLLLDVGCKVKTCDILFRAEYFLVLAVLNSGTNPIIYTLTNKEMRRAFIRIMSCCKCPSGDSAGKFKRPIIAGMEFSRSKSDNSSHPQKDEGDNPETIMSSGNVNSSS

Row | SMILES | Ki (S1P1 [1]) [nM] | EC50 (S1P1 [2]) [nM] | EC50 (S1P3) [nM]
1 | CC1CCCCN1c1ccc(-c2nc(-c3ccc4[nH]cnc4c3)no2)cc1C(F)(F)F (stereo not shown) [Compound 1, 5-{5-[4-(2-methylpiperidin-1-yl)-3-(trifluoromethyl)phenyl]-1,2,4-oxadiazol-3-yl}-1H-benzimidazole] | 5 | 11 | 621
2 | COCc1cc(-c2nc(-c3ccc4[nH]cnc4c3)no2)ccc1-c1ccccc1C [Compound 4, 5-{5-[2-(methoxymethyl)-2′-methylbiphenyl-4-yl]-1,2,4-oxadiazol-3-yl}-1H-benzimidazole] | 5 | 8.4 | 325
3 | Cc1ccccc1-c1ccc(-c2nc(-c3ccc4nc[nH]c4c3)no2)cc1CN(C)C [Compound 5, 1-{4-[3-(1H-benzimidazol-6-yl)-1,2,4-oxadiazol-5-yl]-2′-methylbiphenyl-2-yl}-N,N-dimethylmethanamine] | 5 | 3.4 | 
4 | CC1CCCCN1c1ccc(-c2nc(-c3ccc4c(c3)CNCC4)no2)cc1C(F)(F)F (stereo not shown) [Compound 10, 7-{5-[4-(2-methylpiperidin-1-yl)-3-(trifluoromethyl)phenyl]-1,2,4-oxadiazol-3-yl}-1,2,3,4-tetrahydroisoquinoline] | 3 | 12 | 584
5 | CC1CCCCN1c1ccc(-c2nc(-c3ccc4c(c3)CNCC4)no2)cc1NS(C)(=O)=O (stereo not shown) [Compound 11, N-{2-(2-methylpiperidin-1-yl)-5-[3-(1,2,3,4-tetrahydroisoquinolin-7-yl)-1,2,4-oxadiazol-5-yl]phenyl}methanesulfonamide] | 4 | 6 | 159
6 | CC1CCCCN1c1ccc(-c2nc(-c3ccc4c(c3)CNCC4)no2)cc1C#N (stereo not shown) [Compound 12, 2-(2-methylpiperidin-1-yl)-5-[3-(1,2,3,4-tetrahydroisoquinolin-7-yl)-1,2,4-oxadiazol-5-yl]benzonitrile] | 0.8 | 9 | 
7 | COCc1cc(-c2nc(-c3ccc4c(c3)CNCC4)no2)ccc1-c1ccccc1C [Compound 15, 7-{5-[2-(methoxymethyl)-2′-methylbiphenyl-4-yl]-1,2,4-oxadiazol-3-yl}-1,2,3,4-tetrahydroisoquinoline] | 1 | 6 | 
8 | COCc1cc(-c2nc(-c3ccc4c(c3)CN(CC(=O)O)CC4)no2)ccc1-c1ccccc1C [Compound 16, [7-{5-[2-(methoxymethyl)-2′-methylbiphenyl-4-yl]-1,2,4-oxadiazol-3-yl}-3,4-dihydroisoquinolin-2(1H)-yl]acetic acid] | 0.7 | 2.1 | 
9 | CC1CCCCN1c1ccc(-c2nc(-c3ccc4[nH]ccc4c3)no2)cc1NS(C)(=O)=O (stereo not shown) [Compound 22, N-[5-[3-(1H-indol-5-yl)-1,2,4-oxadiazol-5-yl]-2-(2-methylpiperidin-1-yl)phenyl]methanesulfonamide] | 164 | 16 | 
10 | COc1cc(-c2nc(-c3ccc4[nH]ncc4c3)no2)ccc1-c1cscc1C [Compound 24, 5-{5-[3-methoxy-4-(4-methyl-3-thienyl)phenyl]-1,2,4-oxadiazol-3-yl}-1H-indazole] | 3 | 4 | 
11 | Cc1ccccc1-c1ccc(-c2nc(-c3ccc4[nH]ncc4c3)no2)cc1C [Compound 25, 5-[5-(2,2′-dimethylbiphenyl-4-yl)-1,2,4-oxadiazol-3-yl]-1H-indazole] | 11 | 32 | 
12 | CCC1CCCCN1c1ccc(-c2nc(-c3ccc4[nH]cnc4c3)no2)cc1COC (stereo not shown) [Compound 27, 5-{5-[4-(2-ethylpiperidin-1-yl)-3-(methoxymethyl)phenyl]-1,2,4-oxadiazol-3-yl}-1H-benzimidazole] | 4.26 | 17 | 
